Values joined by “and” are separate entries in the source; they are usually repeats but may differ in a detail not shown here. Identical values can stand only once. Like-named read-outs stand apart in the source and are kept apart here. Bridge positions count the residues as written; N and C are the ends. Square brackets hold non-standard residues; d marks the D form. Peptide text beside a SMILES is read from it. * marks the point of attachment. Benzoyl(4-B(OH)2) = O=C(c1ccc(B(O)O)cc1)*; PEG6 = NCCOCCOCCOCCOCCOCCOCCC(=O)O
Legend:
fibronectin = assay: SDS‐PAGE of fibronectin incubated with boronic acid dye; type: binding; conditions: physiological pH; distinct fluorescence at 280 kDa
Experimental: Figure 1 A) Fluorescent microscopy of CDM. Green channel: Staining with 10 μM FL2 is shown. Red channel: Staining with a primary antibody (rabbit; Anti‐fibronectin) and secondary antibody (Anti‐Rabbit IgG, CFTM633) is shown. Third channel: Both channels are merged. The negative control was only stained with the antibodies. Every CDM with FL2 was washed several times with either pH 4.1, pH 7.4, or pH 9.4. B) SDS‐PAGE of fibronectin incubated with FL2 under different pH conditions. (1) FL2 incubation at pH 7.4. (2) FL2 incubation at pH 4.1. (3) Coomassie stain for fibronectin. M = molecular standard.
For quantification, fibronectin was immobilized on Enzyme‐Linked Immunosorbent Assay (ELISA) plates before incubation with FL2. Surfaces were similarly treated with acidic, neutral, and basic conditions, and the remaining fluorescence of FL2 was quantified with each washing step (Figure S1, Supporting Information).
SDS‐PAGE was performed as described.^[ [27] ^] For the separation of small molecular weight peptides, tricine‐gel‐electrophoresis (Novex 10–20% Tricine Gel, 1.0 mm × 12 well, Invitrogen by Thermo Fisher Scientific) was performed, using Mini Gel Tanks from Invitrogen under standardized conditions. […] The gel was destained with demineralized water or destaining buffer (10% 10x ws buffer, 20% methanol, 70% Mili‐Q water) and captured using a Gel‐Reader from BioRad.

[1] = Alizarin Red S (ARS) assay, association of boronic acid with ARS; type: binding; conditions: for Association constant K eq with ARS: ARS assay, pH 7.4, 0.1 M phosphate buffer, fluorescence at 572 nm, average of triplicate runs
Experimental: Affinity toward different monosaccharides was tested quantitatively by an Alizarin Red S (ARS) competition assay. ARS spectroscopic properties change upon the formation of a boronic ester with a boronic acid, resulting in fluorescence.^[ [4] ^, [19] ^] […] The affinity of aryl boronic acid to 1,2‐diols is known to be dependent on modifications of the underlying benzene.

[2] = ARS competition assay with D‐mannitol; type: binding; conditions: for Association constant K eq with D‐mannitol: ARS competition assay, pH 7.4, 0.1 M phosphate buffer, fluorescence at 572 nm, average of triplicate runs
Experimental: (§1) Affinity toward different monosaccharides was tested quantitatively by an Alizarin Red S (ARS) competition assay. ARS spectroscopic properties change upon the formation of a boronic ester with a boronic acid, resulting in fluorescence.^[ [4] ^, [19] ^] Additionally, the absorbance maximum of ARS shifts to shorter wavelengths upon ester formation, resulting in a color shift from red to orange, which facilitates the recognition of the formed bond (Figures S3 and S4, Supporting Information).
(§2) The assay was performed on a TECAN reader, Infinite M Plex, set up with 96‐well plates (Thermo Scientific, Nr. 137,103).

[3] = ARS competition assay with D‐(‐)‐fructose; type: binding; conditions: for Association constant K eq with D‐(‐)‐fructose: ARS competition assay, pH 7.4, 0.1 M phosphate buffer, fluorescence at 572 nm, average of triplicate runs
Experimental: as §1, §2

[4] = ARS competition assay with D‐glucamine; type: binding; conditions: for Association constant K eq with D‐glucamine: ARS competition assay, pH 7.4, 0.1 M phosphate buffer, fluorescence at 572 nm, average of triplicate runs; for Interaction with D‐glucamine in ARS competition assay: fluorescence decay at 572 nm, rising D‐glucamine concentrations, pH 7.4, n = 3
Experimental: as §1, §2

[5] = test system: cell‐derived decellularized extracellular matrices (CDMs) from NIH‐3T3 fibroblasts; assay: Fluorescence imaging of CDMs with CPBA‐NQEQVSPL‐5/6‐carboxyrhodamine 110; type: binding, murine; conditions: fluorescence microscopy
Experimental: The hydrophilic PEG6 linker within the peptide structure was crucial to ensure sufficient water solubility.
For visualization of fibronectin, the CDMs were first blocked using 1x Roti‐Block for 60 min at RT and washed once with PBS. A combination of Rabbit Anti‐Fibronectin antibody (F3648) (1:400 in PBS, overnight at 4 °C) and Anti‐rabbit IgG (H + L), F(ab’)2 Fragment (Alexa Fluor 647 Conjugate) 4414 (1:200 in PBS, 90 min at RT) was used. […] The dye was removed, and the matrix was washed several times with one of […] different buffers (carbonate/bicarbonate, pH 9.4; 1x PBS, pH 7.4; 1x PBS, pH 8.0, and sodium‐acetate, pH 4.1). Images were taken on an Axio Observer.Z1 microscope equipped with a 63x Plan‐Apochromat […]/1.40 Oil DIC M77 objective (Zeiss), 38 HE Green Fluorescent Reflector (λex = 450–490 nm λem = 500–550 nm), 50 Cy5 Reflector (λex = 625–655 nm λem = 665–715 nm) and a mercury vapor short‐arc lamp.
Figure S9: (A) Fluorescent microscopy of CDM. Green channel: Staining with CBPA-[…]-5/6-Carboxyrhodamine
110 is shown. Red channel: Staining with a primary antibody (rabbit; Anti-fibronectin) and secondary antibody (Anti-Rabbit
IgG, AF647) is shown. Third channel: Both channels are merged. The negative control was only stained with the antibodies.
Every CDM with the CPBA-Peptide was washed several times with either pH 4.1, pH 7.4, pH 8.0 or pH 9.4. […]

[6] = UV‐VIS spectra, shift of ARS absorbance maximum upon ester formation; type: binding; conditions: UV‐VIS spectra in the presence of ARS
Text: As a positive control, we used 4‐(dihydroxyboryl)benzoic acid coupled to the hydrophilic polymer PEG of 2000 Da, with a similar molecular weight. […] We continued to examine the binding of CBPA‐PEG‐MI to ARS in the presence of D‐glucamine, D‐(‐)‐fructose and D‐mannitol as a competition assay as outlined above (Figure 4B, Figure S11, Supporting Information).
Figure S10: UV-VIS spectra of various peptides bound to ARS or glucamine. CPBA was used as a positive control, while ARS serves as a negative control. (A) UV-VIS-spectra of the peptide CPBA-MI in the presence of ARS- or glucamine. (B) UV-VIS-spectra of the peptide CPBA-PEG-MI in the presence of ARS- or glucamine. (C) UV-VIS-spectra of the peptide Acetyl-MI in the presence of ARS- or glucamine.
Figure S11: Fluorescence decay at 572 nm measured in an ARS competition assay with CPBA-PEG-MI and the negative control acetyl-MI in the presence of rising concentrations of fructose (A) and mannitol (B) as model saccharides at pH 7.4.
Data are shown as mean ± STDEV (n = 3). […]

myostatin = biological target: T1, myostatin (Homo sapiens, UniProt O14793); assay: Myostatin inhibition assay, SMAD luciferase reporter in HEK SBE cells; type: cell-based
T1 construct: purchased Bio-techne (Minneapolis)
T1 sequence (O14793 267-375): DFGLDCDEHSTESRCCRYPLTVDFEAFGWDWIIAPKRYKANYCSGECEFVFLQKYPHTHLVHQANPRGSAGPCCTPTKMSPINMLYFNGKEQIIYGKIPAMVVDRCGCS
Experimental: D) Myostatin inhibition by different MI peptides as determined via SMAD luciferase reporter with HEK SBE cells. 100 % activity corresponds to 4 nM myostatin. Data are shown as mean ± STDEV (n = 3).
The inhibition of all three MI peptides by myostatin was tested using a reporter gene luciferase assay in HEK293 cells, which monitored SMAD phosphorylation in response to varying myostatin concentrations, as described.^[ [24] ^]
HEK SBE cells (HEK‐293 cells stably transfected with a pGl3ti vector containing a Smad binding element at the promoter of the firefly luciferase gene and a hygromycin resistance gene) were used as previously described.^[ [24] ^] […] The total protein concentration of each sample was determined by the Bradford Protein concentration assay. […] The absorbance was measured with a plate reader (Infinite 200 PRO, Tecan). […] The injector of the plate reader was primed with luciferase assay reagent. The plate reader was programmed to automatically inject 100 μL of the reagent into each well and immediately measure the luminescence for 10 s. […] Relative light units per μg of total protein were calculated to analyze the inhibition of myostatin by all three MI peptides.

[7] = cited from earlier work
Experimental: Binding constants of boronic acids and diols have been previously linked to their pKA and pH environment, with phenylboronic acid (pKA = 8.8) showing a binding optimum with ARS at a pH of 7 (1.1 mM^−1).^[ [20] ^]

[8] = fluorescence decay at 572 nm, rising sugar concentrations, pH 7.4, n = 3

In the case of `O=C1c2ccccc2C(=O)c2c1cc(S(=O)(=O)O)c(O)c2O` [ARS, Alizarin Red S], the “Binding to fibronectin after gel electrophoresis” value (fibronectin) is reported as “confirmed”.
For NQEQVSPL [CPBA‐peptide], the “Association constant K eq with ARS” value [1] was 2.35 ± 0.1 mM⁻¹, the “Association constant with ARS relative to unconjugated CPBA” value ([1]; pH 7.4, CPBA‐peptide versus CPBA) was 1.6 fold and the “Association constant K eq with D‐mannitol” value [2] was 0.22 ± 0.0 mM⁻¹. For the same molecule, the “Association constant K eq with D‐(‐)‐fructose” value [3] was 0.29 ± 0.0 mM⁻¹ and the “Association constant K eq with D‐glucamine” value [4] was 3.87 ± 0.7 mM⁻¹.
In the case of CPBA–NQEQVSPL–5/6‐carboxyrhodamine 110, the “pH‐dependent binding to glycan structures of the ECM compared with FL2” value ([5]; 100 μM, three hours at pH 9.4, washed at pH 4.1, 7.4, 8.0 or 9.4) is reported as “comparable pH‐dependent binding behavior” and the “Binding to CDM at pH 7.4 compared with FL2” value ([5]; pH 7.4 wash) is reported as “quantitatively weaker”.
With `CSCC[C@@H]1NC(=O)[C@H](Cc2c[nH]c3ccccc23)NC(=O)[C@@H]2CCCN2C(=O)[C@H](Cc2c[nH]c3ccccc23)NC(=O)[C@H](CCCNC(=N)N)NC(=O)[C@H]([C@@H](C)O)NC(=O)[C@@H](NC(=O)[C@H](CCC(N)=O)NC(=O)CNC(=O)[C@H](CCC(N)=O)NC(=O)[C@@H](NC(=O)[C@H](C)NC(=O)[C@@H](NC(=O)CCOCCOCCOCCOCCOCCOCCNC(=O)c2ccc(B(O)O)cc2)C(C)C)[C@@H](C)O)CSSC[C@@H](C(=O)N2CCC[C@H]2C(=O)N2CCC[C@H]2C(=O)N[C@@H](CCC(N)=O)C(=O)NCC(=O)N[C@@H](Cc2c[nH]c3ccccc23)C(=O)NCC(=O)NCCOCCOCCOCCOCCOCCOCCC(N)=O)NC1=O` [CPBA‐PEG‐MI] ({Benzoyl(4-B(OH)2)-PEG6}-VATQGQCTRWPWMCPPQGWG[PEG6]-NH2; disulfide 7-14) the “Shift of the absorbance maximum of ARS upon ester formation” value [6] was “shift of the absorbance maximum of ARS to shorter wavelengths”, the IC50 (myostatin) was 1.5 µM and the “Displacement of ARS from the peptide complex by D‐mannitol” value [2, 8] was “not able to displace ARS”. For the same molecule, the “Displacement of ARS from the peptide complex by D‐(‐)‐fructose” value [3, 8] was “not able to displace ARS” and the “Interaction with D‐glucamine in ARS competition assay” value [4] was “strongest interaction”.
For `OB(O)c1ccccc1` [phenylboronic acid], the pKA [7] is listed as 8.8 and the “Binding constant with ARS at binding optimum” value ([7]; pH of 7) is listed as 1.1 mM⁻¹.
With `CSCC[C@@H]1NC(=O)[C@H](Cc2c[nH]c3ccccc23)NC(=O)[C@@H]2CCCN2C(=O)[C@H](Cc2c[nH]c3ccccc23)NC(=O)[C@H](CCCNC(=N)N)NC(=O)[C@H]([C@@H](C)O)NC(=O)[C@@H](NC(=O)[C@H](CCC(N)=O)NC(=O)CNC(=O)[C@H](CCC(N)=O)NC(=O)[C@@H](NC(=O)[C@H](C)NC(=O)[C@@H](NC(C)=O)C(C)C)[C@@H](C)O)CSSC[C@@H](C(=O)N2CCC[C@H]2C(=O)N2CCC[C@H]2C(=O)N[C@@H](CCC(N)=O)C(=O)NCC(=O)N[C@@H](Cc2c[nH]c3ccccc23)C(=O)NCC(=O)NCCOCCOCCOCCOCCOCCOCCC(N)=O)NC1=O` [Acetyl‐MI] (Ac-VATQGQCTRWPWMCPPQGWG[PEG6]-NH2; disulfide 7-14) the IC50 (myostatin; HEK SBE luciferase reporter cells, 4 nM myostatin, 48 h, 37 °C, n = 3, read-out: IC50, inhibition of myostatin‐induced SMAD phosphorylation) was 1.7 µM and the “Interaction with D‐glucamine in ARS competition assay” value [4] was “nonbinding”.
With `O=C(O)c1ccc(B(O)O)cc1` [CPBA, 4‐Carboxy‐phenyl‐boronic acid, reference compound] the “Association constant K eq with ARS” value [1] was 1.46 ± 0.3 mM⁻¹, the “Association constant K eq with D‐mannitol” value [2] was 0.08 ± 0.0 mM⁻¹ and the “Association constant K eq with D‐(‐)‐fructose” value [3] was 0.11 ± 0.0 mM⁻¹. For the same molecule, the “Association constant K eq with D‐glucamine” value [4] was 2.09 mM⁻¹ and 2.09 ± 0.6 mM⁻¹.
